Test results reported in patent US10745397B2, “1-Substituted 1,2,3,4-tetrahydro-1,7-naphthyridin-8-amine derivatives and their use as EP4 receptor antagonists” (TAKEDA PHARMACEUTICAL COMPANY LIMITED, priority 2015, dated 2020).

Assays:
[1] = target: T1, hEP4 (C6 glioma cells overexpressing hEP4) (Homo sapiens, UniProt P35408); assay: hEP4 cell based assay (cAMP), inhibition of PGE2 induced cAMP, HTRF; conditions: 1 μM compound, PGE2 at EC80
T1 construct: host or cells: C6 glioma cells overexpressing hEP4
T1 sequence (P35408 whole entry): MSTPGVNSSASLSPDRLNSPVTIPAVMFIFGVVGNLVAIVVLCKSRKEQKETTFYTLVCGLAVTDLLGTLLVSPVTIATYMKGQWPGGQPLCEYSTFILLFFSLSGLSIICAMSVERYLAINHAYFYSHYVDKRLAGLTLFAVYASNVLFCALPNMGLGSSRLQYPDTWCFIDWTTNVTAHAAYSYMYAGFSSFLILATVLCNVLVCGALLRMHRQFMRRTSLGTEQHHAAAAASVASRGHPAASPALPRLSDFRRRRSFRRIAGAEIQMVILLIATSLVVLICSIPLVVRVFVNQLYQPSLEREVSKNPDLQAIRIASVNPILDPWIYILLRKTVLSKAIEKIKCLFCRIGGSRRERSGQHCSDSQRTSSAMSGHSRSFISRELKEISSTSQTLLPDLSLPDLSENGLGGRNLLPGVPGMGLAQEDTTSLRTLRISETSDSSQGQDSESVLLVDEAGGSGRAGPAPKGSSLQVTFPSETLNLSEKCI
Procedure: The functional assay for hEP4 activation and inhibition was carried out via the quantitative determination of agonist, PGE2, induced cAMP response using HTRF in a competitive immunoassay (Cisbio dynamic 2 kit). NCEs at varying concentrations were evaluated for inhibition of PGE2 induced increase in cAMP. Briefly, C6 glioma cells overexpressing hEP4 (Takeda) were cultured in DMEM (low glucose, pyruvate), 10% FBS (Gibco) and PenStep. The cells were harvested on the day of the assay, washed with HBSS+10 mM HEPES (pH 7.4)+0.1% BSA buffer and pre-incubated with varying concentrations of NCE. Each reaction contained 7000 cells and NCEs in HBSS+10 mM HEPES+0.1% BSA assay buffer along with PDE inhibitors IBMX and Ro 20-1724 (final concentration of each inhibitor […]). Following 15 min pre-incubation, the cells were treated with EC80 concentration of agonist PGE2 for 30 min to induce cAMP. Final volume of the assay was 6 μL and DMSO concentration was maintained at 1%. The reaction was terminated with the addition of cAMP labeled with the dye d2 in lysis buffer according to manufacturers' protocol. This was followed by the addition of the anti-cAMP antibody labeled with Cryptate according to the manufacturers' protocol. The reaction was incubated at room temperature in dark for 45 min and the plate was evaluated for fluorescence at 665 nm (FRET) and 620 nm (cryptate emission) on a Flexstation III microplate reader (Molecular Devices, Sunnyvale, Calif.) Ex max: 313 nm; Em1: 620 nm; Em2: 665 nm. Data was analyzed using GraphPad Prism 5 (GraphPad Software Inc., San Diego, Calif.) where cells treated with agonist (EC80) was normalized to 0% inhibition of hEP4 and cells treated with buffer (no agonist) was normalized to 100% inhibition of hEP4. IC50 of NCEs was generated using non-linear regression—Log(inhibitor) vs. response equation in GraphPad Prism 5.

human EP4 receptor = target: T2, human EP4 receptor (Homo sapiens, UniProt P35408); assay: hEP4 radioligand binding assay ([3H] PGE2 competitive binding, membrane fractions); conditions: 300 nM compound; 1 nM [3H] PGE2
T2 construct: expressed in transfected cells; host or cells: FreeStyle293 (HEK293F) cells, transient transfection with pcDNA3.1(+), total membrane fraction
T2 sequence (P35408 whole entry): as above
Excerpt: The full-length coding sequences for human EP1 (NM_000955), human EP2 (NM_000956), human EP3 (NM_198717) and human EP4 (NM_000958) were cloned into pcDNA3.1(+) vector (Life Technologies, CA, USA). In order to prepare overexpressed EP 1-4 membrane in Freestyle293 cells (Life Technologies, CA, USA), the pcDNA3.1(+) vector encoding a cDNA of the relevant gene was transiently transfected into FreeStyle293 cells using 293Fectin (Life Technologies, CA, USA) according to the manufacturer instruction manual. After 2 days, cultured cells were centrifuged (1,000×g, 10 min, 4° C.) and pellets homogenized by a probe sonicator (Sonics vibracell, Sonics and Materials Inc., USA; 31% Amp, 5 sec pulse, Imin interval, 4 cycles) in ice-cold 50 mM Tris-HCl buffer (pH 7.5 at 25° C.) containing 0.5 mM EDTA, 250 mM Sucrose and 10 mM MgCl2. Cell homogenates were centrifuged (890×g, 10 min, 4° C.), and the supernatant was recovered. Total membrane fractions were isolated by ultracentrifugation (140,000×g, 60 min, 4° C.). Pellets were re-suspended in the same buffer, and stored at −80° C. until use. The protein concentration in homogenate was determined with the BCA Protein Assay Kit (Pierce Biotechnology, Inc., IL, USA) according to the manufacturer protocol.
The binding affinity of the compounds was evaluated using a competitive radioligand binding assay which measured the specific binding of [3H] PGE2 to the human EP4 receptor. Briefly, varying concentrations of NCEs were incubated with cell membrane fractions generated HEK293F cells transiently transfected with human EP4 receptor as described above. Each reaction consisted of 10 μg membrane protein and NCE in 50 mM Tris-HCl, pH-6.0 by NaOH, 10 mM MgCl2 and 0.5 mM EDTA assay buffer. Radioligand, [3H] PGE2 (American Radiochemicals Inc. Specific Activity 180 Ci/mmol), at a final of 1 nM was added to each reaction where the final assay volume was 200 μL and concentration of DMSO was adjusted to 1%. Appropriate controls included total binding in the assay (vehicle control) and control for non-specific binding. Non-specific binding was evaluated by incubating the hEP4 protein with 10 μM unlabeled PGE2 under the same assay conditions as NCEs. The reaction was incubated at room temperature for 2 hours and terminated by harvesting the reaction contents to a PEI coated GF/C filter plate (PerkinElmer). The plate was washed four times with cold 50 mM Tris-HCl, pH-7.5 wash buffer and dried at 50° C. for 2 hours or at 37° C. overnight. [3H] PGE2 bound to the protein was quantified by the addition of 25 μL of Microscint PS (PerkinElmer) and plate was read on MicroBeta2 liquid Scintillation and luminescence counter (PerkinElmer). Data was analyzed using GraphPad Prism 5 (GraphPad Software Inc., San Diego, Calif.) where non-specific binding was normalized to 0% specific binding of [3]PGE2 and vehicle control (DMSO) was normalized to 100% specific binding of [3]PGE2. Binding affinity of NCEs, Ki, was generated using One site—Fit Ki equation in GraphPad Prism 5.

Row | SMILES | inhibition at 1 µM [1] [%] | inhibition at 0.3 µM (human EP4 receptor) [%]
1 | C[C@H](Nc1nccc2c1N(CCOc1ccc(F)cc1)CCO2)c1ccc(C(=O)O)cc1 [Example B3, 4-[(1S)-1-[[4-[2-(4-Fluorophenoxy)ethyl]-2,3-dihydropyrido[4,3-b][1,4]oxazin-5-yl]amino]ethyl]benzoic acid] | 90 | 81
2 | O=C(O)c1ccc(C2(Nc3nccc4c3N(Cc3ccc(C(F)(F)F)cc3)CCO4)CC2)cc1 [Example B20, 4-[1-[[4-[[4-(trifluoromethyl)phenyl]methyl]-2,3-dihydropyrido[4,3-b][1,4]oxazin-5-yl]amino]cyclopropyl]benzoic acid] | 92 | 92
3 | C[C@H](Nc1nccc2c1N(Cc1ccc(F)cc1)CCO2)c1ccc(C(=O)O)cc1 [Example B9, 4-[(1S)-1-[[4-[(4-fluorophenyl)methyl]-2,3-dihydropyrido[4,3-b][1,4]oxazin-5-yl]amino]ethyl]benzoic acid] | 100 | 97
4 | O=C(O)c1ccc(C2(Nc3nccc4c3N(Cc3ccccc3)CCO4)CC2)cc1 [Example B22, 4-[1-[(4-benzyl-2,3-dihydropyrido[4,3-b][1,4]oxazin-5-yl)amino]cyclopropyl]benzoic acid] | 90 | 80
5 | CONC(=O)c1ccc([C@H](C)Nc2nccc3c2N(Cc2ccc(C(F)(F)F)cc2)CCO3)cc1 [Example D2, N-Methoxy-4-[(1S)-1-[[4-[[4-(trifluoromethyl)phenyl]methyl]-2,3-dihydropyrido[4,3-b][1,4]oxazin-5-yl]amino]ethyl]benzamide] | 92 | 87
6 | C[C@@H](Nc1nccc2c1N(Cc1ccc(C(F)(F)F)cc1)CCO2)c1ccc(C(=O)O)cc1 [Example B32, 4-[(1R)-1-[[4-[[4-(trifluoromethyl)phenyl]methyl]-2,3-dihydropyrido[4,3-b][1,4]oxazin-5-yl]amino]ethyl]benzoic acid] | 47 | 53
7 | CNC(=O)c1ccc([C@H](C)Nc2nccc3c2N(Cc2ccc(C(F)(F)F)cc2)CCO3)cc1 [Example D3, N-methyl-4-[(1S)-1-[[4-[[4-(trifluoromethyl)phenyl]methyl]-2,3-dihydropyrido[4,3-b][1,4]oxazin-5-yl]amino]ethyl]benzamide] | 84 | 73
8 | O=C(O)c1ccc(C2(Nc3nccc4c3N(Cc3cccc(Cl)c3)CCO4)CC2)cc1 [Example B24, 4-[1-[[4-[(3-chlorophenyl)methyl]-2,3-dihydropyrido[4,3-b][1,4]oxazin-5-yl]amino]cyclopropyl]benzoic acid acid] | 71 | 100
9 | C[C@H](Nc1nccc2c1N(Cc1ccc(C(F)(F)F)cc1)CCO2)c1ccc(C#N)cc1 [Example E1, 4-[(1S)-1-[[4-[[4-(Trifluoromethyl)phenyl]methyl]-2,3-dihydropyrido[4,3-b][1,4]oxazin-5-yl]amino]ethyl]benzonitrile] | 91 | 92
10 | Cc1cccc(CN2CCOc3ccnc(NC4(c5ccc(C(=O)O)cc5)CC4)c32)c1 [Example B25, 4-[1-[[4-(m-tolylmethyl)-2,3-dihydropyrido[4,3-b][1,4]oxazin-5-yl]amino]cyclopropyl]benzoic acid] | 79 | 98
11 | COc1ccc(CN2CCOc3ccnc(NC4(c5ccc(C(=O)O)cc5)CC4)c32)cc1 [Example B21, 4-[1-[[4-[(4-methoxyphenyl)methyl]-2,3-dihydropyrido[4,3-b][1,4]oxazin-5-yl]amino]cyclopropyl]benzoic acid] | 87 | 87
12 | C[C@H](Nc1nccc2c1N(Cc1cc(F)cc(F)c1)CCO2)c1ccc(C(=O)O)cc1 [Example B13, 4-[(1S)-1-[[4-[(3,5-difluorophenyl)methyl]-2,3-dihydropyrido[4,3-b][1,4]oxazin-5-yl]amino]ethyl]benzoic acid] | 100 | 92
13 | C[C@H](Nc1nccc2c1N(Cc1ccc(C(F)(F)F)o1)CCO2)c1ccc(C(=O)O)cc1 [Example B31, 4-[(1S)-1-[[4-[[5-(trifluoromethyl)-2-furyl]methyl]-2,3-dihydropyrido[4,3-b][1,4]oxazin-5-yl]amino]ethyl]benzoic acid] | 98 | 92
14 | Cc1cccc(CN2CCOc3ccnc(N[C@@H](C)c4ccc(C(=O)O)cc4)c32)c1 [Example B10, 4-[(1S)-1-[[4-(m-tolylmethyl)-2,3-dihydropyrido[4,3-b][1,4]oxazin-5-yl]amino]ethyl]benzoic acid] | 100 | 97
15 | O=C(O)c1ccc(C2(Nc3nccc4c3N(Cc3cccc(F)c3)CCO4)CC2)cc1 [Example B16, 4-[1-[[4-[(3-fluorophenyl)methyl]-2,3-dihydropyrido[4,3-b][1,4]oxazin-5-yl]amino]cyclopropyl]benzoic acid] | 88 | 93
16 | C[C@H](Nc1nccc2c1N(Cc1cccc(C(F)(F)F)c1)CCO2)c1ccc(C(=O)O)cc1 [Example B14, 4-[(1S)-1-[[4-[[3-(trifluoromethyl)phenyl]methyl]-2,3-dihydropyrido[4,3-b][1,4]oxazin-5-yl]amino]ethyl]benzoic acid] | 100 | 93
17 | COc1cccc(CN2CCOc3ccnc(N[C@@H](C)c4ccc(C(=O)O)cc4)c32)c1 [Example B12, 4-[(1S)-1-[[4-[(3-methoxyphenyl)methyl]-2,3-dihydropyrido[4,3-b][1,4]oxazin-5-yl]amino]ethyl]benzoic acid] | 100 | 98
18 | C[C@H](Nc1nccc2c1N(Cc1ccccc1)CCO2)c1ccc(C(=O)O)cc1 [Example B1, 4-[(1S)-1-[(4-Benzyl-2,3-dihydropyrido[4,3-b][1,4]oxazin-5-yl)amino]ethyl]benzoic acid] | 100 | 93
19 | C[C@H](Nc1nccc2c1N(Cc1ccc(C(F)(F)F)cc1)CCO2)c1ccc(C(N)=O)cc1 [Example D1, 4-[(1S)-1-[[4-[[4-(Trifluoromethyl)phenyl]methyl]-2,3-dihydropyrido[4,3-b][1,4]oxazin-5-yl]amino]ethyl]benzamide] | 98 | 85
